Measured values published in US5610139A, “Antimicrobial compositions and pharmaceutical preparations thereof” (Seikagaku Corporation, priority 1992, dated 1997).
Values after ≈ are worked out from the molar mass of the structure shown. Read-outs that look alike come from different tables or passages of the source. Where a SMILES comes first, the peptide text is derived from it. Bridges are numbered along the chain shown (N, C = ends).

What was measured:
MRSA No. 3-50 strain = format: cell-based, Staphylococcus aureus; settings: for growth: MRSA No. 3-50; for MIC, single administration of the peptide: MRSA; as to growth: key: + shows growth; - shows no growth
Text: Synergistic antimicrobial activities by the combinations of tachyplesin I and β-lactam antibiotics or chloramphenicol antibiotics against above mentioned clinically isolated MRSAs were examined and the results against MRSA No. 3-50 strain are shown in the following Tables.

[1] = system: 55 strains of clinically isolated MRSA; format: cell-based, Staphylococcus aureus
Text: The MRSAs used for the experiments shown below were isolated as follows. Specimens of urine, sputa and pus of hospitalized patients in Nagoya University, School of Medicine Hospital were smeared and cultured on blood agar medium. Staphylococcus aureus was isolated and identified from the grown colonies. Their sensitivity were examined using BBL test disks containing one μg of oxacillin (BBL Microbiology System Co., Ltd.) and strains showing inhibitory zone of 10 mm or less were classified as MRSA. A total of 55 strains of MRSA Nos. 170, 199, 3-50, 3-53 and so forth were isolated. Their sensitivity were confirmed by an agar plate dilution method using Mueller-Hinton agar medium of BBL (BBL Microbiology System Co., Ltd.) containing 100, 50, 25, 12.5, 6.3, 3.2, 1.6 or 0.8 μg/ml of methicillin (Banyu Pharmaceutical Co., Ltd.).
MRSAs obtained by the preceding method were cultured in L medium (1% bactotrypton, 0.5% yeast extract, 0.5% NaCl, pH 7.2) overnight and diluted 40-fold with a phosphate buffered saline solution (PBS).
Separately, tachyplesin I was diluted by 2-fold method using M9 medium (a synthetic medium added with 1% casamino acid) or T broth (0.5% bactotrypton and 0.5% NaCl) to give concentrations of 200-0.4 μg/ml and poured in a 96 well microplate at 100 μl/well each.
The 40-fold diluted bacterial solution was further diluted 10-fold with the M9 medium or T broth and poured 100 μl each to the above wells and the combined solution was mixed to give final concentration of 100-0.2 μg/ml of tachyplesin I. The bacterial concentration was made approximately 10^6 cfu/well (cfu=colony forming unit).
The resultant mixed solutions of bacterial and tachyplesin I solutions were cultured overnight (18 hrs.) at 37° C. The growth of bacteria was determined by the turbidity of the medium and the minimum concentration required to inhibit their growth was used as the minimum inhibitory concentration (MIC).
MICs of various antimicrobial peptides derived from horseshoe crab against 55 strains of clinically isolated MRSA were determined by a similar method to that shown above.

[2] = system: artificial vesicles using inner membrane of E. coli; experiment: Action on membrane potential in artificial vesicles in vitro; format: biochemical
Text: The antimicrobial mechanisms of the peptides such as tachyplesins against MRSAs are supposed to be similar to those of against Escherichia coil and Salmonella spp. There is an energy producing mechanism by oxidative phosphorylation in cytoplasmic membrane of bacteria, which couples with membrane potential. The action mechanism against E. coli was modeled in artificial vesicles using inner membrane of E. coli and the action of tachyplesin I was investigated in vitro.

[3] = antibiotic 10 μg/ml alone (TAC-I 0 μg/ml)
[4] = antibiotic 20 μg/ml alone (TAC-I 0 μg/ml)
[5] = against 55 strains of clinically isolated MRSA

| Compound | growth (MRSA No. 3-50 strain; [3]) | growth (MRSA No. 3-50 strain; [4]) | MIC [1, 5] | MIC, single administration of the peptide (MRSA No. 3-50 strain) | also measured |
| --- | --- | --- | --- | --- | --- |
| CC1(C)S[C@@H]2[C@H](NC(=O)[C@H](N)c3ccccc3)C(=O)N2[C@H]1C(=O)O [ABPC, Ampicillin] | + | + |  |  |  |
| Cc1nnc(SCC2=C(C(=O)O)N3C(=O)[C@@H](NC(=O)Cn4cnnn4)[C@H]3SC2)s1 [CEZ, Cefazolin] | + | + |  |  | growth (MRSA No. 3-50 strain; antibiotic 40 μg/ml alone (TAC-I 0 μg/ml)): - |
| O=C(N[C@H](CO)[C@H](O)c1ccc([N+](=O)[O-])cc1)C(Cl)Cl [CP, Chloramphenicol] | + | + |  |  | growth (MRSA No. 3-50 strain; antibiotic 5 μg/ml alone (TAC-I 0 μg/ml)): + |
| CC(C)[C@@H]1NC(=O)[C@H](CCCNC(=N)N)NC(=O)[C@H](Cc2ccccc2)NC(=O)[C@@H](NC(=O)[C@H](Cc2c[nH]c3ccccc23)NC(=O)[C@H](CCCNC(=N)N)NC(=O)[C@@H](N)CCCNC(=N)N)CSSC[C@@H](C(=O)N[C@@H](CCCNC(=N)N)C(N)=O)NC(=O)[C@H](CCCCN)NC(=O)[C@H](CCCNC(=N)N)NC(=O)[C@H](Cc2ccc(O)cc2)NC(=O)[C@@H]2CSSC[C@H](NC1=O)C(=O)N[C@@H](Cc1ccc(O)cc1)C(=O)N[C@@H](CCCCN)C(=O)NCC(=O)N[C@@H](Cc1ccccc1)C(=O)N2 [Polyphemusin II] (H-RRWCFRVCYKGFCYRKCR-NH2; disulfide 4-17, 8-13) |  |  | 6.3 µg/mL (≈ 2.6 µM) | 6.3 µg/mL |  |
| CC[C@H](C)[C@@H]1NC(=O)CNC(=O)[C@H](CCCNC(=N)N)NC(=O)[C@H](Cc2ccc(O)cc2)NC(=O)[C@@H]2CSSC[C@H](NC1=O)C(=O)N[C@@H](Cc1ccc(O)cc1)C(=O)N[C@@H](CCCNC(=N)N)C(=O)N[C@@H](CCCCN)C(=O)N[C@H](C(=O)N[C@@H](CCCNC(=N)N)C(N)=O)CSSC[C@H](NC(=O)[C@H](Cc1c[nH]c3ccccc13)NC(=O)[C@@H](N)CCCNC(=N)N)C(=O)N[C@@H](Cc1ccccc1)C(=O)N[C@@H](CCCNC(=N)N)C(=O)N[C@@H](C(C)C)C(=O)N2 [Tachyplesin II] (H-RWCFRVCYRGICYRKCR-NH2; disulfide 3-16, 7-12; N-terminus and C-terminus assumed) |  |  | 3.2 µg/mL (≈ 1.41 µM) |  |  |
| CC[C@H](C)[C@@H]1NC(=O)CNC(=O)[C@H](CCCNC(=N)N)NC(=O)[C@H](Cc2ccc(O)cc2)NC(=O)[C@@H]2CSSC[C@H](NC1=O)C(=O)N[C@@H](Cc1ccc(O)cc1)C(=O)N[C@@H](CCCNC(=N)N)C(=O)N[C@@H](CCCNC(=N)N)C(=O)N[C@H](C(=O)N[C@@H](CCCNC(=N)N)C(N)=O)CSSC[C@H](NC(=O)[C@H](Cc1c[nH]c3ccccc13)NC(=O)[C@@H](N)CCCCN)C(=O)N[C@@H](Cc1ccccc1)C(=O)N[C@@H](CCCNC(=N)N)C(=O)N[C@@H](C(C)C)C(=O)N2 [Tachyplesin I] (H-KWCFRVCYRGICYRRCR-NH2; disulfide 3-16, 7-12; N-terminus and C-terminus assumed) |  |  |  | 3.2 µg/mL | MIC ([1]; 47 strains (85% of total 55 MRSA strains)): 6.3 µg/mL (≈ 2.78 µM); MIC ([1]; one strain (2% of total 55 MRSA strains)): 12.5 µg/mL (≈ 5.52 µM); MIC ([1]; seven strains (13% of total 55 MRSA strains)): 3.2 µg/mL (≈ 1.41 µM); effect on membrane potential generated in the cytoplasmic membrane [2]: depolarized the membrane potential; growth (MRSA No. 3-50 strain; TAC-I 0.4 μg/ml alone (antibiotic 0 μg/ml)): +; growth (MRSA No. 3-50 strain; TAC-I 0.8 μg/ml alone (antibiotic 0 μg/ml)): +; growth (MRSA No. 3-50 strain; TAC-I 1.6 μg/ml alone (antibiotic 0 μg/ml)): + |
